From US10065924B2, “Preparation and biological evaluation of viridicatumtoxin analogs” (priority 2014, dated 2018)
Values after ≈ are worked out from the molar mass of the structure shown.

Key:
[1] = tested on: Enterococcus faecalis S613; test: Micro-broth MIC assay, E. faecalis S613; type: cell-based; conditions: for MIC: Enterococcus faecalis, S613, read-out: Minimum Inhibitory Concentration (MIC) E. faecalis S613; for Minimum Inhibitory Concentration (MIC) E. faecalis S613: Gram-(+), clinical strain, triplicate, no growth after 16-24 hours at 37° C.
Protocol: (§1) Four clinical strains were used for these studies, Enterococcus faecalis S613, Enterococcus faecium isolate 105, Methicillin-Resistant Staphylococcus aureus 371 (MRSA 371) and Acinetobacter baumannii AB210. Enterococcus strains were cultured in 80% Lysogeny Broth (LB) & 20% Brain Heart Infusion (BHI). MRSA 371 and AB210 were cultured in 100% LB.
(§2) Micro-broth MIC assays were performed in triplicate using 96-well plates. Wells were filled with 150 μL of broth media and inoculated with 2 μL of stationary phase culture. The concentration of the test antibiotics increased in 2-fold increments and ranged from 0.25-128 μg/mL. Plates were incubated overnight at 37° C. and the MICs were defined as the lowest drug concentration that had no growth after 16-24 hours.

[2] = tested on: E. faecium 501; test: Micro-broth MIC assay, E. faecium 501; type: cell-based, Enterococcus faecium; conditions: Gram-(+), clinical strain, triplicate, no growth after 16-24 hours at 37° C.; for MIC: Enterococcus faecium, 501, read-out: Minimum Inhibitory Concentration (MIC) E. faecium 501
[3] = tested on: Methicillin-Resistant Staphylococcus aureus 371 (MRSA 371); test: Micro-broth MIC assay, MRSA 371; type: cell-based; conditions: for MIC: Staphylococcus aureus, MRSA, read-out: Minimum Inhibitory Concentration (MIC) MRSA 371; for Minimum Inhibitory Concentration (MIC) MRSA 371: Gram-(+), clinical strain, triplicate, no growth after 16-24 hours at 37° C.
Protocol: as §1, §2

[4] = tested on: Acinetobacter baumannii AB210; test: Micro-broth MIC assay, A. baumannii AB210; type: cell-based; conditions: for MIC: Acinetobacter baumannii, AB210, read-out: Minimum Inhibitory Concentration (MIC) A. baumannii AB210; for Minimum Inhibitory Concentration (MIC) A. baumannii AB210: Gram-(−), clinical strain, triplicate, no growth after 16-24 hours at 37° C.
Protocol: as §1, §2

| Compound | MIC [1] | MIC [2] | MIC [3] | MIC [4] | Minimum Inhibitory Concentration (MIC) E. faecalis S613 [1] | Minimum Inhibitory Concentration (MIC) E. faecium 501 [2] | Minimum Inhibitory Concentration (MIC) MRSA 371 [3] | Minimum Inhibitory Concentration (MIC) A. baumannii AB210 [4] |
| --- | --- | --- | --- | --- | --- | --- | --- | --- |
| COc1cc(O)c2c(O)c3c(c4c2c1[C@]1(C4)C(C)=CCCC1(C)C)C(=O)[C@H]1CC(O)=C(C(N)=O)C(=O)[C@@]1(O)C3=O (racemic) [(±)-V2] | 0.5 µg/mL (≈ 0.913 µM) | 0.5 µg/mL (≈ 0.913 µM) | 2 µg/mL (≈ 3.65 µM) | 64 µg/mL (≈ 117 µM) |  |  |  |  |
| COc1cc(O)c2c(O)c3c(c4c2c1[C@@]1(C4)C(C)=CCCC1(C)C)C(=O)[C@H]1CC(O)=C(C(N)=O)C[C@@]1(O)C3=O (racemic) [(±)-V3] | 4 µg/mL (≈ 7.5 µM) | 2 µg/mL (≈ 3.75 µM) | 8 µg/mL (≈ 15 µM) | 64 µg/mL (≈ 120 µM) |  |  |  |  |
| COc1cc(OC)c2c(O)c3c(c4c2c1[C@@]1(C4)C(C)=CCCC1(C)C)C(=O)[C@H]1CC(O)=C(C(N)=O)C[C@@]1(O)C3=O (racemic) [(±)-V4] | 4 µg/mL (≈ 7.3 µM) | 4 µg/mL (≈ 7.3 µM) | 4 µg/mL (≈ 7.3 µM) | 64 µg/mL (≈ 117 µM) |  |  |  |  |
| COc1cc(O)c2c(O)c3c(c4c2c1[C@]1(C4)C(C)=CCCC1(C)C)[C@H](O)[C@H]1CC(O)=C(C(N)=O)C(=O)[C@@]1(O)C3=O (racemic) [(±)-V5] | 1 µg/mL (≈ 1.82 µM) | 1 µg/mL (≈ 1.82 µM) | 8 µg/mL (≈ 14.6 µM) | 64 µg/mL (≈ 116 µM) |  |  |  |  |
| COc1cc(O)c2c(O)c3c(c4c2c1[C@]1(C4)C(C)=CCCC1(C)C)[C@@H](O)[C@H]1CC(O)=C(C(N)=O)C(=O)[C@@]1(O)C3=O (racemic) [(±)-V6] | 0.5 µg/mL (≈ 0.91 µM) | 0.5 µg/mL (≈ 0.91 µM) | 2 µg/mL (≈ 3.64 µM) | 64 µg/mL (≈ 116 µM) |  |  |  |  |
| COc1cc(O)c2c(O)c3c(c4c2c1[C@]1(C4)C(C)=CCCC1(C)C)[C@H](O)[C@@]1(O)CC(=O)C(C(N)=O)=C(O)[C@@]1(O)C3=O [(+)-2, viridicatumtoxin A] |  |  |  |  | 1 µg/mL | 1 µg/mL | 4 µg/mL | 64 µg/mL |
| viridicatumtoxin B [(±)-1, reference compound] |  |  |  |  | 1 µg/mL | 0.5 µg/mL | 4 µg/mL | 64 µg/mL |
